Where “and” joins values, the source holds several entries; their conditions need not be identical. Equal entries are not always repeated.
Test system: preferentially upregulated genes in LV, SP, LN
Test: Z-score-based differential gene expression analysis (adjuvant group- or adjuvant-associated genes, 40 module mapping, TargetMine annotation)
Format: in vivo, C57BL/6 mice
Details: ID
In short: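 Per-sample fold-change values converted to gene-wise z-scores within each organ's data set, then triplicate z-scores summed per adjuvant. Genes with summed score >3 taken as preferentially expressed; gene groups defined by combined per-adjuvant z-score thresholds (z>1 to z>3) specific to each organ.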

SMILES: Nc1nc2c(ncn2[C@@H]2O[C@@H]3COP(=O)(O)O[C@H]4[C@@H](O)[C@H](n5cnc6c(=O)[nH]c(N)nc65)O[C@@H]4COP(=O)(O)O[C@H]3[C@H]2O)c(=O)[nH]1 [cdiGMP, Cyclic diguanylate monophosphate]
- z-score of fold change, 1436387_at C330006P03Rik///Homer1 (LN, samples x1-x3, Modules 29): 1.372 and 1.437 and 1.158
- z-score of fold change, 1439349_at Sbno2 (LN, samples x1-x3, Modules 29): 1.367 and 1.407 and 1.166
- z-score of fold change, 1444010_at Eif4e (LN, samples x1-x3, Modules 29): 1.659 and 1.049 and 1.227
- z-score of fold change, 1448325_at Ppp1r15a (LN, samples x1-x3, Modules 29): 1.314 and 1.203 and 1.441
- z-score of fold change, 1449311_at Bach1 (LN, samples x1-x3, Modules 29): 1.178 and 1.558 and 1.189
- z-score of fold change, 1450297_at Il6 (LN, samples x1-x3, Modules 29): 1.437 and 0.989 and 1.53
- z-score of fold change, 1455197_at Rnd1 (LN, samples x1-x3, Modules 29): 1.54 and 1.27 and 1.166
- z-score of fold change, 1455899_x_at Socs3 (LN, samples x1-x3, Modules 29): 1.206 and 1.544 and 1.18
- z-score of fold change, 1417252_at Ptgs2 (LN, samples x1-x3, Modules 34): 1.507 and 1.214 and 1.232
- z-score of fold change, 1417263_at Ptgs2 (LN, samples x1-x3, Modules 34): 1.51 and 0.965 and 1.47
- z-score of fold change, 1419132_at Tlr2 (LN, samples x1-x3, Modules 34): 1.576 and 1.128 and 1.246
- z-score of fold change, 1421473_at Il1a (LN, samples x1-x3, Modules 34): 1.525 and 1.178 and 1.257
- z-score of fold change, 1439981_at Tespa1 (LN, samples x1-x3, Modules 35): 1.343 and 1.427 and 1.18
- z-score of fold change, 1441843_s_at 5230400M03Rik (LN, samples x1-x3, Modules 35): 1.442 and 1.354 and 1.171
- z-score of fold change, 1442556_at --- (LN, samples x1-x3, Modules 35): 1.421 and 1.315 and 1.245
- z-score of fold change, 1443414_at C78513 (LN, samples x1-x3, Modules 35): 1.402 and 0.963 and 1.557
- z-score of fold change, 1444598_at --- (LN, samples x1-x3, Modules 35): 1.559 and 1.318 and 1.053
- z-score of fold change, 1445534_at --- (LN, samples x1-x3, Modules 35): 1.345 and 1.515 and 1.078
- z-score of fold change, 1446245_at --- (LN, samples x1-x3, Modules 35): 1.239 and 1.22 and 1.46
- z-score of fold change, 1457944_at --- (LN, samples x1-x3, Modules 35): 1.366 and 1.428 and 1.146
- z-score of fold change, 1458376_at B930025B16Rik (LN, samples x1-x3, Modules 35): 1.188 and 1.502 and 1.273
- z-score of fold change, 1459144_at --- (LN, samples x1-x3, Modules 35): 1.275 and 1.199 and 1.493
- z-score of fold change, 1425687_at Cflar (LN, samples x1-x3, Modules 36): 1.199 and 1.3 and 1.469
- z-score of fold change, 1427736_a_at Ccrl2 (LN, samples x1-x3, Modules 36): 1.328 and 1.075 and 1.554
- z-score of fold change, 1449169_at Has2 (LN, samples x1-x3, Modules 36): 1.306 and 1.158 and 1.458
- z-score of fold change, 1453636_at Pcgf5 (LN, samples x1-x3, Modules 36): 1.332 and 1.143 and 1.496
- z-score of fold change, 1457888_at --- (LN, samples x1-x3, Modules 36): 1.466 and 1.08 and 1.38
- z-score of fold change, 1419508_at Ripk1 (LN, samples x1-x3, Modules 37): 1.035 and 1.437 and 1.467
- z-score of fold change, 1421578_at Ccl4 (LN, samples x1-x3, Modules 37): 1.402 and 1.22 and 1.368
- z-score of fold change, 1421679_a_at Cdkn1a (LN, samples x1-x3, Modules 37): 1.429 and 1.421 and 1.13
- z-score of fold change, 1424638_at Cdkn1a (LN, samples x1-x3, Modules 37): 1.624 and 1.232 and 1.074
- z-score of fold change, 1433508_at Klf6 (LN, samples x1-x3, Modules 37): 1.271 and 1.413 and 1.263
- z-score of fold change, 1434350_at Csrnp1 (LN, samples x1-x3, Modules 37): 1.353 and 1.305 and 1.308
- z-score of fold change, 1439680_at Tnfsf10 (LN, samples x1-x3, Modules 37): 1.169 and 1.36 and 1.399
- z-score of fold change, 1448724_at Cish (LN, samples x1-x3, Modules 37): 1.476 and 1.357 and 1.106
- z-score of fold change, 1451340_at Arid5a (LN, samples x1-x3, Modules 37): 1.5 and 1.292 and 1.161
- z-score of fold change, 1453851_a_at Gadd45g (LN, samples x1-x3, Modules 37): 1.368 and 1.383 and 1.21
- z-score of fold change, 1457404_at Nfkbiz (LN, samples x1-x3, Modules 37): 1.371 and 1.232 and 1.386
- z-score of fold change, 1458589_at --- (LN, samples x1-x3, Modules 37): 1.137 and 1.339 and 1.469
- z-score of fold change, 1422054_a_at 5kil (LN, samples x1-x3, Modules 40): 1.491 and 1.218 and 1.211
- z-score of fold change, 1428735_at Cd69 (LN, samples x1-x3, Modules 40): 1.22 and 1.344 and 1.378
- Adar 1425405_a_at (Group G1, Modules 20) (LV, sample x1): 1.58
- Adar 1434268_at (Group G1, Modules 20) (LV, sample x1): 1.7
- Ddx58 1436562_at (Group G1, Modules 20) (LV, sample x1): 0.94
- Ddx58 1456890_at (Group G1, Modules 20) (LV, sample x1): 1.2
- Eif2ak2 1422005_at (Group G1, Modules 20) (LV, sample x1): 1.02
- G3bp2 1421323_a_at (Group G1, Modules 20) (LV, sample x1): 1.74
- Gm9706///Isg15 1431591_s_at (Group G1, Modules 20) (LV, sample x1): 1.01
- H2-T10///H2-T22///H2-T9 1449875_s_at (Group G1, Modules 20) (LV, sample x1): 1.07
- Ifih1 1426276_at (Group G1, Modules 20) (LV, sample x1): 0.89
- Ifit1 1450783_at (Group G1, Modules 20) (LV, sample x1): 2.21
- Ifit3 1449025_at (Group G1, Modules 20) (LV, sample x1): 1.7
- Irf7 1417244_a_at (Group G1, Modules 20) (LV, sample x1): 0.85
- Irgm1 1418825_at (Group G1, Modules 20) (LV, sample x1): 1.33
- Mndal 1426906_at (Group G1, Modules 20) (LV, sample x1): 1.77
- Pml 1448757_at (Group G1, Modules 20) (LV, sample x1): 1.41
- Pml 1456103_at (Group G1, Modules 20) (LV, sample x1): 1.31
- Rnf213 1455500_at (Group G1, Modules 20) (LV, sample x1): 2.07
- Rsad2 1436058_at (Group G1, Modules 20) (LV, sample x1): 2.39

From US20230021483A1, “[…] […] METHOD AND CLASSIFICATION OF PHARMACEUTICAL COMPONENTS BY USING TRANSCRIPTOMES” (National Institutes of Biomedical Innovation, Health and …, priority 2016, published 2023)
